Our source for the IC50 values is patent US20230271969A1, “NITROGEN-CONTAINING FUSED RING DERIVATIVE INHIBITOR, PREPARATION METHOD THEREFOR AND USE THEREOF” (Shanghai Hansoh Biomedical Co., Ltd., priority 2020, published 2023).

Assay [1] addresses T1, NK3 receptors (Homo sapiens, UniProt P29371).
T1 construct: expressed in transfected cells
T1 sequence (P29371 1-465): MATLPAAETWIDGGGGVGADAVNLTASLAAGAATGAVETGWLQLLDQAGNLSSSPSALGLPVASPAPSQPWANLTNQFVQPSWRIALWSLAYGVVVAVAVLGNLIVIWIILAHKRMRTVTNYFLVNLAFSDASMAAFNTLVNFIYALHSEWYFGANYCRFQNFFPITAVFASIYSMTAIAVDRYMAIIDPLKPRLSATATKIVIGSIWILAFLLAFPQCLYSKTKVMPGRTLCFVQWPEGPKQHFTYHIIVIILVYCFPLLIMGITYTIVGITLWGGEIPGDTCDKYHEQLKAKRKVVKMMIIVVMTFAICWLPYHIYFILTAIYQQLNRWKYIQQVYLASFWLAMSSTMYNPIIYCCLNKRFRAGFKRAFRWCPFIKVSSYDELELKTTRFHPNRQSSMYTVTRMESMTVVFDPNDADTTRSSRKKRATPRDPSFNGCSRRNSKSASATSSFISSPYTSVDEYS
In words: Calcium ion fluidity (FLIPR) in cells with stable expression of NK3 receptors. The note with it: calcium signal, antagonist mode, read-out: NK3R IC50 (nM) FLIPR. Type of assay: cell-based.

Assay [2] addresses T1, NK3 receptors. In words: Antagonism of IP1 in HEK293 cells with stable expression of NK3. It is filed as cell-based. The note with it: agonist Senktide 3 nM, read-out: NK3R IC50 (nM) IP1.

Consider `C[C@@H]1c2nnc(-c3nc4cnc(Cl)cc4s3)n2CCN1C(=O)c1ccc(F)cc1` [Example 37, (R)-(3-(6-Chlorothiazolo[4,5-c]pyridin-2-yl)-8-methyl-5,6-dihydro-[1,2,4]triazolo[4,3-a]pyrazin-7(8H)-yl)(4-fluorophenyl)methanone], for which the IC50 in assay [1] came to 48.9 nM; in assay [2] it was 56.5 nM.
On to `[2H]c1cc(C(=O)N2CCn3c(-c4nc(Cl)ns4)nnc3[C@H]2C)ccc1F` [Example 56, (R)-(3-(3-Chloro-1,2,4-thiadiazol-5-yl)-8-methyl-5,6-dihydro-[1,2,4]triazolo[4,3-a]pyrazin-7(8H)-yl)(4-fluorophenyl-3-d)methanone], for which the half-maximal inhibitory concentration (IC50) was 155 nM in assay [1] and 76 nM in assay [2].
